Source: patent publication US10758534B2 (Vertex Pharmaceuticals Incorporated, priority 2014, dated 2020)

Target: T1, F508del (Homo sapiens, UniProt P13569, DEL508-508)
T1 construct: expressed in transfected cells
Assay: Protocol 2: FRET membrane potential optical assay (VIPR), identification of correction compounds
Format: cell-based
Conditions: Table 3; compounds of Table 1 as modulators of CFTR activity; protocol not stated
Outline: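 Mouse NIH3T3 cells, stable F508del; cpd 16 hrs, 37° C., serum-free; pos ctrl 27° C. 16 hrs. Rinse in Krebs Ringers, dye load, then add 10 μM forskolin + 20 μM genistein with Cl^−-free (gluconate) medium; depolarization by FRET voltage dyes.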

T1 sequence (P13569 with tags, fused parts or gaps DEL508-508): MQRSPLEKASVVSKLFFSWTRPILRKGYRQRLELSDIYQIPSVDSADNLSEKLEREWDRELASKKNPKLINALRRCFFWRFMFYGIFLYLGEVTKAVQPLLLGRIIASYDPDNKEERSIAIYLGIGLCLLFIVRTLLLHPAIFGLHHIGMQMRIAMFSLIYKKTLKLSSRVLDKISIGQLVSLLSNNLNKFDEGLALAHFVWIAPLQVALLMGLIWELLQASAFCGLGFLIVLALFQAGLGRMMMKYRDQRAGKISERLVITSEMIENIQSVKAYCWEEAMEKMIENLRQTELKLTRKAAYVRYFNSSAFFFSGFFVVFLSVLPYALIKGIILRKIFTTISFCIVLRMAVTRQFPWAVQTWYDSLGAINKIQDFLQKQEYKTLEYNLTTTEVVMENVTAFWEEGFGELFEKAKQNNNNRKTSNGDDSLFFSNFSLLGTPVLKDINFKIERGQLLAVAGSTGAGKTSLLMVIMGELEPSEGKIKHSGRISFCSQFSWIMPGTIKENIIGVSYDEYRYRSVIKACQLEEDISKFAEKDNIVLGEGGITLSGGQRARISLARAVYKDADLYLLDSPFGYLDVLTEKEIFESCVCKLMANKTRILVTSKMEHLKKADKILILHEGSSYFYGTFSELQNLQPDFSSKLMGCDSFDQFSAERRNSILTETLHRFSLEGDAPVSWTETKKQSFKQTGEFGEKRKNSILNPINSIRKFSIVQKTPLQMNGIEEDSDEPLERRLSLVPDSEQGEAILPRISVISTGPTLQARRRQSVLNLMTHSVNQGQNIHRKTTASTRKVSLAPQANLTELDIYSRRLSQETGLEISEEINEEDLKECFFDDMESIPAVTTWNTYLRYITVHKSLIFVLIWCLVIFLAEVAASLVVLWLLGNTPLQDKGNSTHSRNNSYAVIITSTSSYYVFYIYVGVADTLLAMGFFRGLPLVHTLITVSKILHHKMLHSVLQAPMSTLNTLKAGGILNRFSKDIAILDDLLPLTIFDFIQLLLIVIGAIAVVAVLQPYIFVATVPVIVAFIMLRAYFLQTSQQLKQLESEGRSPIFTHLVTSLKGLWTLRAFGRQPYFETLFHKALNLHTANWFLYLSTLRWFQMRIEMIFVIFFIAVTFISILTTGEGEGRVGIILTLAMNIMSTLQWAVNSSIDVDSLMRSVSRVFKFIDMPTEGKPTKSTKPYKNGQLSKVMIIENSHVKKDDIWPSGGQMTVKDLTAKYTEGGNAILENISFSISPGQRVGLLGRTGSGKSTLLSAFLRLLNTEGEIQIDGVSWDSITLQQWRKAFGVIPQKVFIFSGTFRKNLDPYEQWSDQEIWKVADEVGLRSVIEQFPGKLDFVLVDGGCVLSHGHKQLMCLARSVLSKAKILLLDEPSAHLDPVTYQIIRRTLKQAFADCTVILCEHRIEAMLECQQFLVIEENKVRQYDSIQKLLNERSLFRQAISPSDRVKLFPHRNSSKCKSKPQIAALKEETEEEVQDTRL

Row | SMILES | EC30
1 | CC(C)COc1cc(F)cc(-c2ccc(C(=O)NS(=O)(=O)c3cccc(N)n3)c(OC3CCCOC3)n2)c1 (stereo not shown) [Compound 706, N-[(6-amino-2-pyridyl)sulfonyl]-6-(3-fluoro-5-isobutoxy-phenyl)-2-tetrahydropyran-3-yloxy-pyridine-3-carboxamide] | +++ (“+++” means <3 uM)
2 | Cc1ccc(-c2nc3c(cc2C(=O)NS(=O)(=O)c2nccnc2N)CCCC3(C)C)cc1 [Compound 707, N-(3-aminopyrazin-2-yl)sulfonyl-8,8-dimethyl-2-(p-tolyl)-6,7-dihydro-5H-quinoline-3-carboxamide] | + (“+” means greater than 10 uM)
3 | CC1CN(c2nc(-c3cccc(OC(C)C)n3)ccc2C(=O)NS(=O)(=O)c2cccc(N)n2)C(C)(C)C1 (stereo not shown) [Compound 708, N-[(6-amino-2-pyridyl)sulfonyl]-6-(6-isopropoxy-2-pyridyl)-2-(2,2,4-trimethylpyrrolidin-1-yl)pyridine-3-carboxamide] | +++ (“+++” means <3 uM)
4 | Cc1cc(C)c(Oc2nc(-c3cccc(C(F)(F)F)c3)ccc2C(=O)NS(=O)(=O)c2cccc(N)n2)c(C)c1 [Compound 709, N-[(6-amino-2-pyridyl)sulfonyl]-6-[13-(trifluoromethyl)phenyl]-2-(2,4,6-trimethylphenoxy)pyridine-3-carboxamide] | +++ (“+++” means <3 uM)
5 | CC(C)COc1cccc(-c2ccc(C(=O)NS(=O)(=O)c3ccn[nH]3)c(N3[C@H](C)CC[C@@H]3C)n2)c1 [Compound 710, 2-[(2S,5R)-2,5-dimethylpyrrolidin-1-yl]-6-(3-isobutoxyphenyl)-N-(1H-pyrazol-5-ylsulfonyl)pyridine-3-carboxamide] | +++ (“+++” means <3 uM)
6 | CC(C)COc1cc(F)cc(-c2ccc(C(=O)NS(=O)(=O)c3cccc(N)n3)c(N3C(C)CC(c4ccccc4)C3C)n2)c1 (stereo not shown) [Compound 711, N-[(6-amino-2-pyridyl)sulfonyl]-2-(2,5-dimethyl-3-phenyl-pyrrolidin-1-yl)-6-(3-fluoro-5-isobutoxy-phenyl)pyridine-3-carboxamide] | +++ (“+++” means <3 uM)
7 | CC1CN(c2nc(-c3ccc(F)cc3)ccc2C(=O)NS(=O)(=O)c2cccc(N)n2)C(C)(C)C1 (stereo not shown) [Compound 712, N-[(6-amino-2-pyridyl)sulfonyl]-6-(4-fluorophenyl)-2-(2,2,4-trimethylpyrrolidin-1-yl)pyridine-3-carboxamide] | +++ (“+++” means <3 uM)
8 | Cc1ccc(Oc2nc(-c3cnn(CC(C)C)c3)ccc2C(=O)NS(=O)(=O)c2nccnc2N)c(C)c1 [Compound 713, N-(3-aminopyrazin-2-yl)sulfonyl-2-(2,4-dimethylphenoxy)-6-(1-isobutylpyrazol-4-yl)pyridine-3-carboxamide] | ++ (“++” means between 3 uM and 10 uM)
9 | Cc1cc(C)c(Oc2nc3c(cc2C(=O)NS(=O)(=O)c2cccc(N)n2)COCC3(C)C)c(C)c1 [Compound 714, N-[(6-amino-2-pyridyl)sulfonyl]-8,8-dimethyl-2-(2,4,6-trimethylphenoxy)-5,7-dihydropyrano[4,3-b]pyridine-3-carboxamide] | +++ (“+++” means <3 uM)
10 | CC(C)COc1cc(F)cc(-c2ccc(C(=O)NS(=O)(=O)c3ccn[nH]3)c(N3CCC[C@H]3c3ccccc3)n2)c1 [Compound 716, 6-(3-fluoro-5-isobutoxy-phenyl)-2-[(2S)-2-phenylpyrrolidin-1-yl]-N-(1H-pyrazol-5-ylsulfonyl)pyridine-3-carboxamide] | +++ (“+++” means <3 uM)
11 | CC(C)C(C)Oc1cccc(-c2ccc(C(=O)NS(=O)(=O)c3cccc(N)n3)c(N3CCCC3(C)C)n2)n1 (stereo not shown) [Compound 717, N-[(6-amino-2-pyridyl)sulfonyl]-6-[6-(1,2-dimethylpropoxy)-2-pyridyl]-2-(2,2-dimethylpyrrolidin-1-yl)pyridine-3-carboxamide] | +++ (“+++” means <3 uM)
12 | CCOc1ncccc1-c1ccc(C(=O)NS(=O)(=O)c2cccc(N)n2)c(Oc2c(C)cc(C)cc2C)n1 [Compound 718, N-[(6-amino-2-pyridyl)sulfonyl]-6-(2-ethoxy-3-pyridyl)-2-(2,4,6-trimethylphenoxy)pyridine-3-carboxamide] | +++ (“+++” means <3 uM)
13 | COC[C@@H]1CCCN1c1nc(-c2cc(F)cc(OCC(C)C)c2)ccc1C(=O)NS(=O)(=O)c1cccc(N)n1 [Compound 719, N-[(6-amino-2-pyridyl)sulfonyl]-6-(3-fluoro-5-isobutoxy-phenyl)-2-[(2S)-2-(methoxymethyl)pyrrolidin-1-yl]pyridine-3-carboxamide] | +++ (“+++” means <3 uM)
14 | CC(C)COc1cc(F)cc(-c2ccc(C(=O)NS(=O)(=O)c3cccc(N)n3)c(N3CCC(C)C3C)n2)c1 (stereo not shown) [Compound 720, N-[(6-amino-2-pyridyl)sulfonyl]-2-(2,3-dimethylpyrrolidin-1-yl)-6-(3-fluoro-5-isobutoxy-phenyl)pyridine-3-carboxamide] | +++ (“+++” means <3 uM)
15 | CC(C)COc1ccc(F)c(-c2ccc(C(=O)NS(=O)(=O)c3ccc[nH]c3=O)c(N3[C@H](C)CC[C@@H]3C)n2)c1 [Compound 721, 2-[(2S,5R)-2,5-dimethylpyrrolidin-1-yl]-6-(2-fluoro-5-isobutoxy-phenyl)-N-[(2-oxo-1H-pyridin-3-yl)sulfonyl]pyridine-3-carboxamide] | ++ (“++” means between 3 uM and 10 uM)
16 | Cc1ccc(-c2nc(-c3cc(F)cc(OC(C)C)c3)ccc2C(=O)NS(=O)(=O)c2cccc(N)n2)cc1 [Compound 722, N-[(6-amino-2-pyridyl)sulfonyl]-6-(3-fluoro-5-isopropoxy-phenyl)-2-(p-tolyl)pyridine-3-carboxamide] | + (“+” means greater than 10 uM)
17 | COC(=O)C(C)Oc1ccc(-c2ccc(C(=O)NS(=O)(=O)c3cccc(N)n3)c(N3[C@H](C)CC[C@@H]3C)n2)cn1 (stereo partly drawn) [Compound 723, methyl 2-[[5-[5-[(6-amino-2-pyridyl)sulfonylcarbamoyl]-6-[(2S,5R)-2,5-dimethylpyrrolidin-1-yl]-2-pyridyl]-2-pyridyl]oxy]propanoate] | ++ (“++” means between 3 uM and 10 uM)
18 | CC(C)Oc1ccc(-c2ccc(C(=O)NS(=O)(=O)c3cccc(N)n3)c(N3CCCC3C(C)C)n2)cn1 (stereo not shown) [Compound 724, N-[(6-amino-2-pyridyl)sulfonyl]-6-(6-isopropoxy-3-pyridyl)-2-(2-isopropylpyrrolidin-1-yl)pyridine-3-carboxamide] | +++ (“+++” means <3 uM)
19 | Cc1cc(C)c(Oc2nc(-c3ccc(F)c(F)c3)ccc2C(=O)NS(=O)(=O)c2cccc(N)n2)c(C)c1 [Compound 725, N-[(6-amino-2-pyridyl)sulfonyl]-6-(3,4-difluorophenyl)-2-(2,4,6-trimethylphenoxy)pyridine-3-carboxamide] | +++ (“+++” means <3 uM)
20 | COc1ccc(-c2ccc(C(=O)NS(=O)(=O)c3cccc(N)n3)c(N3[C@H](C)CC[C@@H]3C)n2)cn1 [Compound 726, N-[(6-amino-2-pyridyl)sulfonyl]-2-[(2S,5R)-2,5-dimethylpyrrolidin-1-yl]-6-(6-methoxy-3-pyridyl)pyridine-3-carboxamide] | ++ (“++” means between 3 uM and 10 uM)
21 | Cc1cc(C)c(Oc2nc(-c3cc(CO)ccc3F)ccc2C(=O)NS(=O)(=O)c2cccc(N)n2)c(C)c1 [Compound 727, N-[(6-amino-2-pyridyl)sulfonyl]-6-[2-fluoro-5-(hydroxymethyl)phenyl]-2-(2,4,6-trimethylphenoxy)pyridine-3-carboxamide] | + (“+” means greater than 10 uM)
22 | CC(C)COc1cc(F)cc(-c2ccc(C(=O)NS(=O)(=O)c3ccn[nH]3)c(N3CCC(F)CC3)n2)c1 [Compound 728, 6-(3-fluoro-5-isobutoxy-phenyl)-2-(4-fluoro-1-piperidyl)-N-(1H-pyrazol-5-ylsulfonyl)pyridine-3-carboxamide] | ++ (“++” means between 3 uM and 10 uM)
23 | CC(C)Oc1ccc(-c2ccc(C(=O)NS(=O)(=O)c3cccc(N)n3)c(N3CCC4(CCO4)CC3)n2)cn1 [Compound 729, N-[(6-amino-2-pyridyl)sulfonyl]-6-(6-isopropoxy-3-pyridyl)-2-(3-oxa-7-azaspiro[3.5]nonan-7-yl)pyridine-3-carboxamide] | ++ (“++” means between 3 uM and 10 uM)
24 | Cc1cc(C)c(Oc2nc(-c3cccc(C)n3)ccc2C(=O)NS(=O)(=O)c2cccc(N)n2)c(C)c1 [Compound 730, N-[(6-amino-2-pyridyl)sulfonyl]-6-(6-methyl-2-pyridyl)-2-(2,4,6-trimethylphenoxy)pyridine-3-carboxamide] | +++ (“+++” means <3 uM)
25 | CC(C)Oc1ccc(-c2ccc(C(=O)NS(=O)(=O)c3cccc(N)n3)c(N3CCCCC3c3ccccc3)n2)cn1 (stereo not shown) [Compound 731, N-[(6-amino-2-pyridyl)sulfonyl]-6-(6-isopropoxy-3-pyridyl)-2-(2-phenyl-1-piperidyl)pyridine-3-carboxamide] | +++ (“+++” means <3 uM)
26 | CC(C)Oc1ccc(-c2ccc(C(=O)NS(=O)(=O)c3cccc(N)n3)c(N3CCC4CCCC43)n2)cn1 (stereo not shown) [Compound 732, 2-(3,3a,4,5,6,6a-hexahydro-2H-cyclopenta[b]pyrrol-1-yl)-N-[(6-amino-2-pyridyl)sulfonyl]-6-(6-isopropoxy-3-pyridyl)pyridine-3-carboxamide] | +++ (“+++” means <3 uM)
27 | CC(C)Oc1ccc(-c2ccc(C(=O)NS(=O)(=O)c3cccc(N)n3)c(N3CCC4(CCC4)CC3)n2)cn1 [Compound 733, N-[(6-amino-2-pyridyl)sulfonyl]-2-(7-azaspiro[3.5]nonan-7-yl)-6-(6-isopropoxy-3-pyridyl)pyridine-3-carboxamide] | +++ (“+++” means <3 uM)
28 | CC(C)COc1cc(F)cc(-c2ccc(C(=O)NS(=O)(=O)c3ccn[nH]3)c(N3CCCCCC3)n2)c1 [Compound 734, 2-(azepan-1-yl)-6-(3-fluoro-5-isobutoxy-phenyl)-N-(1H-pyrazol-5-ylsulfonyl)pyridine-3-carboxamide] | +++ (“+++” means <3 uM)
